Values of other authors, collected in US7795435B2, “Process for obtaining the polymorphic form I of finasteride” (Ragactives, S.L., priority 2002, dated 2010).

Details: 25° C., according to EP 0 599 376 B1

SMILES | solubility in cyclohexane [mg/g] | solubility in water [mg/g]
CC(C)(C)NC(=O)[C@H]1CC[C@H]2[C@@H]3CC[C@H]4NC(=O)C=C[C@]4(C)[C@H]3CC[C@]12C [Form I of finasteride] | 0.27 ± 0.05 | 0.05 ± 0.02
CC(C)(C)NC(=O)[C@H]1CC[C@H]2[C@@H]3CC[C@H]4NC(=O)C=C[C@]4(C)[C@H]3CC[C@]12C [Form II of finasteride] | 0.42 ± 0.05 | 0.16 ± 0.02
